Measured values reported in ChEMBL document CHEMBL4706705 (Bioorg Med Chem, 2021).
Calls of active or inactive are those of the source. The rule behind the calls is not given here.

Columns and labels:
[1] = Half life in rat at 5 mg/kg, po by LC-MS analysis; format: ADME, organism-based; conditions: in vivo
[2] = Cmax in rat assessed as N-(5-(4-(1-cyclopropyl-1H-indol-3-yl)pyrimidin-2-ylamino)-4-methoxy-2-(methyl(2-(methylamino)ethyl)amino)phenyl)acrylamide level at 5 mg/kg, po by LC-MS analysis; format: ADME, organism-based; set-up: route oral, dose 5 mg/kg; conditions: in vivo
Mus musculus [3] = test: In vivo inhibition of EGFR T790M/L858R double mutant in nude mouse xenografted with human NCI-H1975 cells assessed as reduction in ERK phosphorylation at 5 mg, ig measured after 6 hrs by Western blot analysis; format: functional, organism-based
[4] = AUC (0 to 8 hrs) in rat at 5 mg/kg, po by LC-MS analysis; format: ADME, organism-based; set-up: time < 8 hr, route oral, dose 5 mg/kg; conditions: in vivo
NCI-H1975 [5] = test: Antitumor activity against human NCI-H1975 cells harboring EGFR L858R/T790M double mutant xenografted in BALB/c nude mouse assessed as tumor growth inhibition at 5 mg/kg, po administered once daily for 11 days relative to control; format: functional; conditions: time 11 day
[6] = Tmax in rat at 5 mg/kg, po by LC-MS analysis; format: ADME, organism-based; conditions: in vivo
Mus musculus [7] = test: In vivo inhibition of EGFR T790M/L858R double mutant in nude mouse xenografted with human NCI-H1975 cells assessed as reduction in EGFR phosphorylation at 5 mg, ig measured after 6 hrs by Western blot analysis; format: functional, organism-based
Mus musculus [8] = test: In vivo inhibition of EGFR T790M/L858R double mutant in nude mouse xenografted with human NCI-H1975 cells assessed as reduction in AKT phosphorylation at 5 mg, ig measured after 6 hrs by Western blot analysis; format: functional, organism-based
[9] = AUC (0 to 8 hrs) in rat assessed as N-(5-(4-(1-cyclopropyl-1H-indol-3-yl)pyrimidin-2-ylamino)-4-methoxy-2-(methyl(2-(methylamino)ethyl)amino)phenyl)acrylamide level at 5 mg/kg, po by LC-MS analysis; format: ADME, organism-based; set-up: time < 8 hr, route oral, dose 5 mg/kg; conditions: in vivo
[10] = Oral bioavailability in rat at 5 mg/kg by LC-MS analysis; format: ADME, organism-based; conditions: in vivo
A-431 = test: Cytotoxicity against human A-431 cells harboring wild-type EGFR measured after 72 hrs by celltiter-glo assay; format: cell-based; conditions: A-431, 72 h
[11] = Toxicity in BALB/c nude mouse xenografted with human NCI-H1975 cells harboring EGFR T790M/L858R double mutant assessed as effect on body weight at 5 mg/kg, po administered once daily for 11 days measured twice daily during compound dosing; format: organism-based; conditions: in vivo, 264 h, time 11 day
[12] = molecular target: Epidermal growth factor receptor (Homo sapiens, UniProt P00533, L858R/T790M); test: Inhibition of recombinant human N-terminal GST-tagged EGFR T790M/L858R double mutant using biotinylated TK peptide as substrate measured after 30 mins by HTRF assay
Sequence of Epidermal growth factor receptor (Homo sapiens, UniProt P00533, L858R/T790M) (P00533 25-1210 T790M/L858R limits assumed): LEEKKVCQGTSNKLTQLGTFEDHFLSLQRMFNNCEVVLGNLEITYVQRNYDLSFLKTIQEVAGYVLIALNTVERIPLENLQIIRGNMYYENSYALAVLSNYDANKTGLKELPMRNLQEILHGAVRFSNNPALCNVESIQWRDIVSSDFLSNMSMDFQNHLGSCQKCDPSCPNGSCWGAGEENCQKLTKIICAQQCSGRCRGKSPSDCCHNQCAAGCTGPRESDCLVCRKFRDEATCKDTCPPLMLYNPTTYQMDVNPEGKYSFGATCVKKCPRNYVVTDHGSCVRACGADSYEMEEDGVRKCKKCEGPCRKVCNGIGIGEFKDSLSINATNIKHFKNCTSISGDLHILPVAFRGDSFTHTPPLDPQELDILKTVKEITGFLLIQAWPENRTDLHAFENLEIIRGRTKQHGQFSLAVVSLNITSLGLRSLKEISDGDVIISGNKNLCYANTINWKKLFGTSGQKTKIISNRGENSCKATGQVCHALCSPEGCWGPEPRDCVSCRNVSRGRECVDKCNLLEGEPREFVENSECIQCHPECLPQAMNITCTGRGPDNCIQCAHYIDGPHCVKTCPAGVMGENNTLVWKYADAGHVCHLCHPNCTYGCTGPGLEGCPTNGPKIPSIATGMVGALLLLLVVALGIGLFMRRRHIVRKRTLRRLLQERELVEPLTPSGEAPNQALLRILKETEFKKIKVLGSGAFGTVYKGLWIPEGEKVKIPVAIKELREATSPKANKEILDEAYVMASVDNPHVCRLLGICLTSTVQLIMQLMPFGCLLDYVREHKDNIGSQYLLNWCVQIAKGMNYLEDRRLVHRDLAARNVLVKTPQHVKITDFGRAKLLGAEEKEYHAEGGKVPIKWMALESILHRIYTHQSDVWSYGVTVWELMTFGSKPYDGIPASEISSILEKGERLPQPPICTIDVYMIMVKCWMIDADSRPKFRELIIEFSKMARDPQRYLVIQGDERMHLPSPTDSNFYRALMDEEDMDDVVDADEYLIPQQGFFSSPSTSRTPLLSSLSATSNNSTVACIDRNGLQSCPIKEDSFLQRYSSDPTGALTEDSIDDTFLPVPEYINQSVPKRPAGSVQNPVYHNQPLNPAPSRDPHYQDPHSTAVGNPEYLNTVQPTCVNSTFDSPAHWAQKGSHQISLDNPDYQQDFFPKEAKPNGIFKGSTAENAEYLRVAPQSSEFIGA

NCI-H1975 [13] = test: Antiproliferative activity against human NCI-H1975 cells harboring EGFR L858R/T790M double mutant measured after 72 hrs by celltiter-glo assay; format: functional, cell-based; conditions: NCI-H1975, 72 h
[14] = Cmax in rat at 5 mg/kg, po by LC-MS analysis; format: ADME, organism-based; set-up: route oral, dose 5 mg/kg; conditions: in vivo
[15] = AUC (0 to infinity) in rat at 5 mg/kg, po by LC-MS analysis; format: ADME, organism-based; set-up: time infinity, route oral, dose 5 mg/kg; conditions: in vivo
NCI-H1975 [16] = test: Potency index, ratio of osimertinib IC50 to test compound IC50 for antiproliferative activity against human NCI-H1975 cells harboring EGFR L858R/T790M double mutant; format: functional
[17] = molecular target: Epidermal growth factor receptor (Homo sapiens, UniProt P00533); test: Inhibition of wild-type EGFR (unknown origin) using biotinylated TK peptide as substrate measured after 30 mins by HTRF assay
Sequence of Epidermal growth factor receptor (Homo sapiens, UniProt P00533) (P00533 whole entry): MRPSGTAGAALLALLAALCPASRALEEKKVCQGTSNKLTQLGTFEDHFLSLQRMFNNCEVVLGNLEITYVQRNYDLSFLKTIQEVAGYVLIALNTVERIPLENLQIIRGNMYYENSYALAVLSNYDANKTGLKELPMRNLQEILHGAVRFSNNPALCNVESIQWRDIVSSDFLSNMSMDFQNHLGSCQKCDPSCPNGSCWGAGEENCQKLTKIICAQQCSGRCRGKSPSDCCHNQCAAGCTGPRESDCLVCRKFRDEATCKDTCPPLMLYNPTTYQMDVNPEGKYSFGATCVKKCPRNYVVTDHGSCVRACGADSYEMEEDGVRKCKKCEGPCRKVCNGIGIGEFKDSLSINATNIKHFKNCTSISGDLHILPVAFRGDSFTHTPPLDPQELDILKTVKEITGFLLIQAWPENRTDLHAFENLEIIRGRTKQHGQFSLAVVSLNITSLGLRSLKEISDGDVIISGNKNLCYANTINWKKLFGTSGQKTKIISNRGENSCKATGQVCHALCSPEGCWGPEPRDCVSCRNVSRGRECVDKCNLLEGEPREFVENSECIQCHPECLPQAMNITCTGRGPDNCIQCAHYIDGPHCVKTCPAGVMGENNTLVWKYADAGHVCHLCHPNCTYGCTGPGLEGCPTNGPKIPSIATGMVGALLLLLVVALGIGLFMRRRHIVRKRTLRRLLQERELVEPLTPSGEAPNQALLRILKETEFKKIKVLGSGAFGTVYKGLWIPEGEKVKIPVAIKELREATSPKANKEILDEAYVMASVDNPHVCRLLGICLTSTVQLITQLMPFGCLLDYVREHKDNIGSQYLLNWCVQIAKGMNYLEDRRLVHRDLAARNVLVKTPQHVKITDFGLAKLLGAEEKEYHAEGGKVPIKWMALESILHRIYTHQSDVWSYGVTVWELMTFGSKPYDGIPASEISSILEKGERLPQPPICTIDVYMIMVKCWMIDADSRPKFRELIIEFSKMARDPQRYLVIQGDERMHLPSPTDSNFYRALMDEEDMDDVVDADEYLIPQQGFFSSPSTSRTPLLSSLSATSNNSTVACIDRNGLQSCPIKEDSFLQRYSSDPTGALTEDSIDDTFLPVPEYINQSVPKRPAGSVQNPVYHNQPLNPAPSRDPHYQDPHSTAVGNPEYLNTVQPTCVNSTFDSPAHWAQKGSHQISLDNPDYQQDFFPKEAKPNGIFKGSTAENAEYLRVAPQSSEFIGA

[18] = Tmax in rat assessed as N-(5-(4-(1-cyclopropyl-1H-indol-3-yl)pyrimidin-2-ylamino)-4-methoxy-2-(methyl(2-(methylamino)ethyl)amino)phenyl)acrylamide level at 5 mg/kg, po by LC-MS analysis; format: ADME, organism-based; conditions: in vivo
[19] = MRT (0 to infinity) in rat at 5 mg/kg, po by LC-MS analysis; format: ADME, organism-based; conditions: in vivo
[20] = Drug level in rat treated with osimertinib at 5 mg/kg, po by LC-MS analysis; format: ADME, organism-based; conditions: in vivo
[21] = Drug level in rat treated with N-(5-(4-(1-cyclopropyl-1H-indol-3-yl)pyrimidin-2-ylamino)-2-((2-(dimethylamino)ethyl)(methyl)amino)-4-methoxyphenyl)acrylamide at 5 mg/kg, po by LC-MS analysis; format: ADME, organism-based; conditions: in vivo
[22] = Drug metabolism in rat assessed as N-(4-methoxy-2-(methyl(2-(methylamino)ethyl)amino)-5-(4-(1-methyl-1H-indol-3-yl)pyrimidin-2-ylamino)phenyl)acrylamide formation at 5 mg/kg, po by LC-MS analysis; format: ADME, organism-based; conditions: in vivo
[23] = MRT (0 to infinity) in rat assessed as N-(5-(4-(1H-indol-3-yl)pyrimidin-2-ylamino)-2-((2-(dimethylamino)ethyl)(methyl)amino)-4-methoxyphenyl)acrylamide level at 5 mg/kg, po by LC-MS analysis; format: ADME, organism-based; conditions: in vivo
[24] = Tmax in rat assessed as N-(5-(4-(1H-indol-3-yl)pyrimidin-2-ylamino)-2-((2-(dimethylamino)ethyl)(methyl)amino)-4-methoxyphenyl)acrylamide level at 5 mg/kg, po by LC-MS analysis; format: ADME, organism-based; conditions: in vivo
[25] = Cmax in rat assessed as N-(5-(4-(1H-indol-3-yl)pyrimidin-2-ylamino)-2-((2-(dimethylamino)ethyl)(methyl)amino)-4-methoxyphenyl)acrylamide level at 5 mg/kg, po by LC-MS analysis; format: ADME, organism-based; set-up: route oral, dose 5 mg/kg; conditions: in vivo

**Q.** Which half-life [1] does the source give for C=CC(=O)Nc1cc(Nc2nccc(-c3cn(C4CC4)c4ccccc34)n2)c(OC)cc1N(C)CCN(C)C [AUMOLERTINIB] here?
**A.** 7 h

**Q.** What about the Cmax [2] of the same molecule?
**A.** 126 ng/mL

**Q.** And the inhibition (Mus musculus [3])?
**A.** Active

**Q.** And the AUC(0-t) at 8 h [4]?
**A.** 4580 ng·h/mL

**Q.** And the inhibition in vivo at 5 mg/kg (NCI-H1975 [5]; Mus musculus, NCI-H1975, po, 264 h, read-out: TGI)?
**A.** 83%

**Q.** What about the Tmax [6] of the same molecule?
**A.** 1 h

**Q.** What about the inhibition (Mus musculus [7]) of the same molecule?
**A.** Active

**Q.** And the inhibition (Mus musculus [8])?
**A.** Active

**Q.** And the AUC [9]?
**A.** 2062 ng·h/mL

**Q.** And the bioavailability [10]?
**A.** 52%

**Q.** And the IC50 (A-431)?
**A.** 209 nM

**Q.** What about the Activity [11] of the same molecule?
**A.** Non-Toxic

**Q.** And the IC50 [12]?
**A.** 0.18 nM

**Q.** What about the IC50 (NCI-H1975 [13]) of the same molecule?
**A.** 1.44 nM

**Q.** What about the Cmax [14] of the same molecule?
**A.** 528 ng/mL

**Q.** What about the AUC(0-inf) [15] of the same molecule?
**A.** 5150 ng·h/mL

**Q.** And the “Ratio IC50” value (NCI-H1975 [16])?
**A.** 10

**Q.** And the IC50 [17]?
**A.** 2.89 nM

**Q.** What about the Tmax [18] of the same molecule?
**A.** 6 h

**Q.** And the MRT inf [19]?
**A.** 9.2 h

**Q.** Which Drug uptake [20] does the source give for C=CC(=O)Nc1cc(Nc2nccc(-c3cn(C)c4ccccc34)n2)c(OC)cc1N(C)CCNC here?
**A.** Active

**Q.** Which Drug uptake [20] does the source give for C=CC(=O)Nc1cc(Nc2nccc(-c3c[nH]c4ccccc34)n2)c(OC)cc1N(C)CCN(C)C here?
**A.** Active

**Q.** For C=CC(=O)Nc1cc(Nc2nccc(-c3cn(C4CC4)c4ccccc34)n2)c(OC)cc1N(C)CCNC, which Drug uptake [21] is on record?
**A.** Active

**Q.** Which IC50 (A-431) does the source give for C=CC(=O)Nc1cc(Nc2nccc(-c3cn(CCO)c4ccccc34)n2)c(OC)cc1N(C)CCN(C)C here?
**A.** 208 nM

**Q.** And the IC50 [12]?
**A.** 0.86 nM

**Q.** And the IC50 (NCI-H1975 [13])?
**A.** 2.2 nM

**Q.** What about the IC50 [17] of the same molecule?
**A.** 1.54 nM

**Q.** Which IC50 (A-431) does the source give for C=CC(=O)Nc1cc(Nc2nccc(-c3cn(C(C)=O)c4ccccc34)n2)c(OC)cc1N(C)CCN(C)C here?
**A.** 192 nM

**Q.** And the IC50 [12]?
**A.** 2.09 nM

**Q.** And the IC50 (NCI-H1975 [13])?
**A.** 15.8 nM

**Q.** And the IC50 [17]?
**A.** 15.5 nM

**Q.** For C=CC(=O)Nc1cc(Nc2nccc(-c3cn(C)c4ccccc34)n2)c(OC)cc1N(C)CCN(C)C [OSIMERTINIB], which Drug metabolism [22] is on record?
**A.** Metabolite_Detected

**Q.** And the half-life [1]?
**A.** 5.4 h

**Q.** What about the inhibition (Mus musculus [3]) of the same molecule?
**A.** Active

**Q.** And the TGI (NCI-H1975 [5])?
**A.** 70%

**Q.** What about the Tmax [6] of the same molecule?
**A.** 1 h

**Q.** What about the inhibition (Mus musculus [7]) of the same molecule?
**A.** Active

**Q.** And the inhibition (Mus musculus [8])?
**A.** Active

**Q.** And the bioavailability [10]?
**A.** 9%

**Q.** And the MRT [23]?
**A.** 14.1 h

**Q.** And the Tmax [24]?
**A.** 6 h

**Q.** What about the Cmax [14] of the same molecule?
**A.** 81.4 ng/mL

**Q.** And the MRT inf [19]?
**A.** 9 h

**Q.** And the Cmax [25]?
**A.** 48.3 ng/mL

**Q.** Which inhibition (Mus musculus [7]) does the source give for C=CCn1cc(-c2ccnc(Nc3cc(NC(=O)C=C)c(N(C)CCN(C)C)cc3OC)n2)c2ccccc21 here?
**A.** Active

**Q.** And the inhibition (Mus musculus [8])?
**A.** Active

**Q.** And the IC50 [12]?
**A.** 1.51 nM

**Q.** What about the IC50 (NCI-H1975 [13]) of the same molecule?
**A.** 34 nM

**Q.** What about the IC50 [17] of the same molecule?
**A.** 15.4 nM

**Q.** Which results are given for C=CC(=O)Nc1cc(Nc2ncc(C(F)(F)F)c(-c3cn(C4CC4)c4ccccc34)n2)c(OC)cc1N(C)CCN(C)C?
**A.** inhibition (Mus musculus [7]): Active; IC50 (A-431): 59 nM; IC50 (NCI-H1975 [13]): 8.15 nM

**Q.** With C#CCn1cc(-c2ccnc(Nc3cc(NC(=O)C=C)c(N(C)CCN(C)C)cc3OC)n2)c2ccccc21 as the molecule, how does the IC50 (A-431) read?
**A.** 690 nM

**Q.** What about the IC50 [12] of the same molecule?
**A.** 1.01 nM

**Q.** What about the IC50 (NCI-H1975 [13]) of the same molecule?
**A.** 6.22 nM

**Q.** For C=CC(=O)Nc1cc(Nc2ncc(C(F)(F)F)c(-c3cn(C4COC4)c4ccccc34)n2)c(OC)cc1N(C)CCN(C)C, which inhibition (Mus musculus [7]) is on record?
**A.** Active

**Q.** With C=CC(=O)Nc1cc(Nc2nccc(-c3cn(C4COC4)c4ccccc34)n2)c(OC)cc1N(C)CCN(C)C as the molecule, how does the IC50 (A-431) read?
**A.** 84.3 nM
